What all share (type): in vivo
One experiment deals with Abutilon theophrasti. Kind of experiment: Pre-emergence test. The note with it: 3 weeks after treatment. How it is done: (§1) To evaluate their herbicidal activity, compounds according to the invention are tested using a representative range of plants: ABUTH Abutilon theophrasti The pre-emergence tests involve spraying a liquid formulation of the compound onto the soil in which the seeds of the plant species mentioned above has recently been sown. The soil used in the tests is a prepared horticultural loam. The formulations used in the tests are prepared from solutions of the test compounds in acetone containing 0.4% by weight of an alkylphenol/ethylene oxide condensate available under the trade mark TRITON X-155. These acetone solutions are diluted with water and the resulting formulations applied at dosage levels corresponding to 0.025 kg, 0.100 kg or 0.400 kg of active material per hectare in a volume equivalent to 900 litres per hectare. In these tests untreated sown soil are used as controls. From 2 to 4 weeks after treatment, the tests are terminated and each pot is examined and rated according to the rating system set forth below: [table]

Experiment [1] relates to Echinochloa crus-galli. The experiment is described as follows: Pre-emergence test. The settings on record: 3 weeks after treatment. On the procedure:
as §1, with “ECHCG Echinochloa crus-galli” for “ABUTH Abutilon theophrasti”

In another experiment the test system is Glycine max. The experiment is described as follows: Pre-emergence test. The settings on record: 3 weeks after treatment. How it is done: To evaluate their herbicidal activity, compounds according to the invention are tested using a representative range of plants:
The pre-emergence tests involve spraying a liquid formulation of the compound onto the soil in which the seeds of the plant species mentioned above has recently been sown.
as §1, with “The” for “To evaluate their herbicidal activity, compounds according to the invention are tested using a representative range of plants: ABUTH Abutilon theophrasti The pre-emergence tests involve spraying a liquid formulation of the compound onto the soil in which the seeds of the plant species mentioned above has recently been sown. The”, “[table]” left out

For the next experiment, the system named is Hordeum vulgare. The experiment is described as follows: Pre-emergence test. The note with it: 3 weeks after treatment. On the procedure: as §1, with “HORVW Hordeum vulgare” for “ABUTH Abutilon theophrasti”
The test system of the next experiment is Galium aparine. Kind of experiment: Post-emergence test. The settings on record: 2-4 weeks after treatment. How it is done:
(§2) To evaluate their herbicidal activity, compounds according to the invention are tested using a representative range of plants: GALAP Galium aparine [table] […] These acetone solutions are diluted with water and the resulting formulations applied at dosage levels equivalent of about 0.1 to 0. 4 kg per hectare of test compound per pot. After spraying the plants are placed on greenhouse benches and are cared for in the usual manner, commensurate with conventional greenhouse practices. From 2 to 4 weeks after treatment, the seedling plants are examined and rated according to the rating system provided above.

A further experiment concerns Ipomoea hederacea. The experiment is described as follows: Post-emergence test. The settings on record: 2-4 weeks after treatment. How it is done:
as §2, with “IPHOE Ipomoea hederacea” for “GALAP Galium aparine”

For experiment [2], the system named is Echinochloa crus-galli. Kind of experiment: Post-emergence test. The settings on record: 2-4 weeks after treatment. On the procedure: as §2, with “ECHCG Echinochloa crus-galli” for “GALAP Galium aparine”
A further experiment relates to Triticum aestivum. Kind of experiment: Post-emergence test. The settings on record: 2-4 weeks after treatment. On the procedure:
as §2, with “TRZAW Triticum aestivum” for “GALAP Galium aparine”

The next experiment concerns Zea mays. Kind of experiment: Post-emergence test. The settings on record: 2-4 weeks after treatment. On the procedure:
as §2, with “ZEAMX Zea mays” for “GALAP Galium aparine”

Three molecules from patent US6528456B2, “Herbicidal 2-pyrazolyl-6-aryloxypyri(mi)dines” (BASF Aktiengesellschaft, priority 1999, dated 2003) can be followed below.

For the molecule `Cn1nc(C(F)(F)F)cc1Oc1cc(C#N)cc(-c2cc(C(F)(F)F)nn2C)n1` [Example 3, 4-Cyano-2-(1-methyl-3-trifluoromethylpyrazol-5-yloxy)-6-(1-methyl-3-trifluoromethylpyrazol-5-yl)pyridine], the figures for the ABUTH herbicidal rating with Abutilon theophrasti (0.025 kg/ha), in the experiment with Abutilon theophrasti (0.100 kg/ha) and in the experiment on Abutilon theophrasti (0.400 kg/ha) were 1 (1 - Trace effect), 5 (5 - Definite injury) and 8 (8 - Approaching complete kill), respectively. Further, the ECHCG herbicidal rating in the experiment on Echinochloa crus-galli [1] (0.025 kg/ha) was 2 (2 - Slight effect); in the experiment on Echinochloa crus-galli [1] (0.100 kg/ha), 4 (4 - Injury); in the experiment with Echinochloa crus-galli [1] (0.400 kg/ha), 4 (4 - Injury); in the experiment on Echinochloa crus-galli [2] (0.1 kg/ha), 4 (4 - Injury); in the experiment with Echinochloa crus-galli [2] (0.4 kg/ha), 4 (4 - Injury). Also, the GLXMA herbicidal rating was 0 (0 - No effect) with Glycine max (0.025 kg/ha), 1 (1 - Trace effect) in the experiment on Glycine max (0.100 kg/ha) and 3 (3 - Moderate effect) in the experiment on Glycine max (0.400 kg/ha). Also, the HORVW herbicidal rating in the experiment on Hordeum vulgare (0.025 kg/ha) is listed as 2 (2 - Slight effect); in the experiment on Hordeum vulgare (0.100 kg/ha), 3 (3 - Moderate effect); in the experiment with Hordeum vulgare (0.400 kg/ha) it was 5 (5 - Definite injury). Moreover, the GALAP herbicidal rating with Galium aparine (0.1 kg/ha) was 3 (3 - Moderate effect); in the experiment with Galium aparine (0.4 kg/ha) it was 9 (9 - Complete kill). The IPOHE herbicidal rating is reported as 6 (6 - Herbicidal effect) in the experiment on Ipomoea hederacea (0.1 kg/ha) and 8 (8 - Approaching complete kill) with Ipomoea hederacea (0.4 kg/ha). The TRZAW herbicidal rating in the experiment on Triticum aestivum (0.1 kg/ha) is on record as 3 (3 - Moderate effect); in the experiment with Triticum aestivum (0.4 kg/ha), 4 (4 - Injury). The ZEAMX herbicidal rating in the experiment with Zea mays (0.1 kg/ha) was 2 (2 - Slight effect); in the experiment with Zea mays (0.4 kg/ha), 4 (4 - Injury).
For the molecule `Cc1cc(Oc2cccc(C(F)(F)F)c2)nc(-c2cc(C(F)(F)F)nn2C)c1` [Example 63], the results for the ABUTH herbicidal rating in the experiment on Abutilon theophrasti (0.100 kg/ha) and with Abutilon theophrasti (0.400 kg/ha) were 0 (0 - No effect) and 2 (2 - Slight effect), respectively. Besides, the ECHCG herbicidal rating is 0 (0 - No effect) in the experiment on Echinochloa crus-galli [1] (0.025 kg/ha); 0 (0 - No effect) in the experiment on Echinochloa crus-galli [1] (0.100 kg/ha); 4 (4 - Injury) in the experiment on Echinochloa crus-galli [1] (0.400 kg/ha); 3 (3 - Moderate effect) in the experiment with Echinochloa crus-galli [2] (0.1 kg/ha); 3 (3 - Moderate effect) with Echinochloa crus-galli [2] (0.4 kg/ha). The GLXMA herbicidal rating with Glycine max (0.025 kg/ha), in the experiment with Glycine max (0.100 kg/ha) and in the experiment with Glycine max (0.400 kg/ha) was 0 (0 - No effect) in each case. Moreover, the HORVW herbicidal rating with Hordeum vulgare (0.025 kg/ha) is reported as 0 (0 - No effect); in the experiment with Hordeum vulgare (0.100 kg/ha) it was 0 (0 - No effect); with Hordeum vulgare (0.400 kg/ha), 2 (2 - Slight effect). The GALAP herbicidal rating in the experiment with Galium aparine (0.1 kg/ha) and with Galium aparine (0.4 kg/ha) was 5 (5 - Definite injury) throughout. The IPOHE herbicidal rating with Ipomoea hederacea (0.1 kg/ha) and with Ipomoea hederacea (0.4 kg/ha) was 8 (8 - Approaching complete kill) each time. Also, the TRZAW herbicidal rating in the experiment with Triticum aestivum (0.1 kg/ha) and in the experiment with Triticum aestivum (0.4 kg/ha) was 3 (3 - Moderate effect) each time. Moreover, the ZEAMX herbicidal rating is reported as 2 (2 - Slight effect) in the experiment with Zea mays (0.1 kg/ha) and 3 (3 - Moderate effect) in the experiment on Zea mays (0.4 kg/ha).
For `Cc1cnc(-c2cc(C(F)(F)F)nn2C)nc1Oc1cc(C(F)(F)F)nn1C` [Example 4, 2-(1-Methyl-3-trifluoromethylpyrazol-5-yl)-6-(1-methyl-3-trifluoromethylpyrazol-5-yloxy)-5-methylpyrimidine], the figures for the ABUTH herbicidal rating in the experiment on Abutilon theophrasti (0.025 kg/ha), with Abutilon theophrasti (0.100 kg/ha) and in the experiment with Abutilon theophrasti (0.400 kg/ha) were 4 (4 - Injury), 7 (7 - Good herbicidal effect) and 9 (9 - Complete kill), respectively. Also, the ECHCG herbicidal rating with Echinochloa crus-galli [1] (0.025 kg/ha) is 4 (4 - Injury); in the experiment on Echinochloa crus-galli [1] (0.100 kg/ha) it was 7 (7 - Good herbicidal effect); in the experiment with Echinochloa crus-galli [1] (0.400 kg/ha), 8 (8 - Approaching complete kill); in the experiment on Echinochloa crus-galli [2] (0.1 kg/ha) it was 8 (8 - Approaching complete kill); in the experiment on Echinochloa crus-galli [2] (0.4 kg/ha), 8 (8 - Approaching complete kill). Also, the GLXMA herbicidal rating is recorded as 2 (2 - Slight effect) in the experiment with Glycine max (0.025 kg/ha), 3 (3 - Moderate effect) with Glycine max (0.100 kg/ha) and 4 (4 - Injury) in the experiment on Glycine max (0.400 kg/ha). For the same molecule, the values for the HORVW herbicidal rating in the experiment with Hordeum vulgare (0.025 kg/ha), in the experiment on Hordeum vulgare (0.100 kg/ha) and in the experiment on Hordeum vulgare (0.400 kg/ha) were 2 (2 - Slight effect), 4 (4 - Injury) and 5 (5 - Definite injury), respectively. For the same molecule, the GALAP herbicidal rating was 8 (8 - Approaching complete kill) with Galium aparine (0.1 kg/ha) and 9 (9 - Complete kill) with Galium aparine (0.4 kg/ha). The IPOHE herbicidal rating with Ipomoea hederacea (0.1 kg/ha) and with Ipomoea hederacea (0.4 kg/ha) was 9 (9 - Complete kill) in each case. Also, the TRZAW herbicidal rating in the experiment with Triticum aestivum (0.1 kg/ha) is 3 (3 - Moderate effect); in the experiment with Triticum aestivum (0.4 kg/ha) it was 5 (5 - Definite injury). The ZEAMX herbicidal rating is on record as 2 (2 - Slight effect) with Zea mays (0.1 kg/ha) and 4 (4 - Injury) with Zea mays (0.4 kg/ha).
